Source: the NIST ThermoML archive (doi:10.1016/j.fluid.2009.09.008)
Numbers after ± are expanded uncertainties.

Details: Liquid, Ebulliometric method (Recirculating still)

Structure (SMILES) | vapor or sublimation pressure (263.15 K) | vapor or sublimation pressure (278.15 K) | vapor or sublimation pressure (293.15 K) | vapor or sublimation pressure (308.15 K) | vapor or sublimation pressure (323.15 K)
FC(C(F)(F)F)C(F)(F)F [1,1,1,2,3,3,3-heptafluoropropane] | 132.4 ± 1.2 kPa | 235.2 ± 1.2 kPa | 389.4 ± 1.2 kPa | 608.3 ± 1.2 kPa | 912.1 ± 1.2 kPa
FC(F)C(F)(F)F [pentafluoroethane] | 482.4 ± 1.2 kPa | 782.1 ± 1.2 kPa | 1205.6 ± 1.3 kPa | 1773.2 ± 1.3 kPa | 2531.1 ± 1.3 kPa
CCC [propane] | 345.9 ± 1.2 kPa | 552.7 ± 1.2 kPa | 839.7 ± 1.2 kPa | 1217.2 ± 1.2 kPa | 1714.5 ± 1.3 kPa
